# Experimental data: patent US10208033B2, “β-carboline, dihydro-β-carboline and tetrahydro-β-carboline alkaloid derivatives and preparation methods same and use in aspects of preventing and treating plant viruses, fungicides and insecticides” (NANKAI UNIVERSITY, priority 2013, dated 2019)
# Like-named read-outs stand apart in the source and are kept apart here.
# Assays:
# [1] = tested on: tobacco mosaic virus (TMV); assay: Anti-TMV in vitro effect (half-leaf soaking); type: cell-based, tobacco mosaic virus (host Nicotiana tabacum L.cv.Xanthi NN)
# [2] = tested on: tobacco mosaic virus (TMV); assay: Anti-TMV in vivo inactivation; set-up: species or system tobacco mosaic virus (host Nicotiana tabacum L.cv.Xanthi NN)
# [3] = tested on: tobacco mosaic virus (TMV); assay: Anti-TMV in vivo therapeutic effect; set-up: species or system tobacco mosaic virus (host Nicotiana tabacum L.cv.Xanthi NN)
# [4] = tested on: tobacco mosaic virus (TMV); assay: Anti-TMV in vivo protective effect; set-up: species or system tobacco mosaic virus (host Nicotiana tabacum L.cv.Xanthi NN)
# cucumber fusarium wilt = assay: Fungicidal (bactericidal) activity in vitro, PDA colony diameter; type: cell-based; details: 50 mg/kg
# Cercospora arachidicola = assay: as above; type: cell-based; details: 50 mg/kg
# Macrophoma kawatsukai = assay: as above; type: cell-based; details: 50 mg/kg
# Alternaria solani = assay: as above; type: cell-based; details: 50 mg/kg
# Fusarium graminearumt = assay: microbe, parasite or virus in culture; type: cell-based; details: 50 mg/kg
# potato late blight = assay: microbe, parasite or virus in culture; type: cell-based
# Sclerotinia scleotiorum = assay: Fungicidal (bactericidal) activity in vitro, PDA colony diameter; type: cell-based; details: 50 mg/kg
# Botrytis cinerea = assay: as above; type: cell-based; details: 50 mg/kg
# Rhizoctonia solani = assay: as above; type: cell-based; details: 50 mg/kg
# Phytophthora capsici = assay: as above; type: cell-based; details: 50 mg/kg
# Fusarium fujikuroi = assay: as above; type: cell-based; details: 50 mg/kg
# Rhizoctonia cereali = assay: as above; type: cell-based; details: 50 mg/kg
# Bipolaria maydis = assay: organism not typed; type: cell-based; details: 50 mg/kg
# [5] = tested on: Colletotrichum orbiculare; assay: Fungicidal (bactericidal) activity in vitro, PDA colony diameter; type: cell-based; details: 50 mg/kg
# armyworms = type: in vivo; details: concentration 600 mg/kg
# cotton bollworms = assay: whole plant or invertebrate
# Protocol: Experimental method of cotton bollworms: feed and drug mixing method: measure 3 mL of prepared solution and add it to about 27 g of newly prepared feed, thereby obtaining needed concentration through dilution by 10 times.
# mosquito larvae = assay: whole plant or invertebrate
# In short: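 Early fourth-instar Culex pipiens pallens larvae from an indoor colony, 10 per beaker, exposed to test compound at 5 ppm in water, diluted from a 1000 ppm acetone mother solution. Blank: water containing 0.5 mL test solvent.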
SMILES,Relative inhibition rate (%) In vitro activity ([1]; treatment dose 100 μg/mL) [%],Relative inhibition rate (%) In vitro activity ([1]; treatment dose 500 μg/mL) [%],Relative inhibition rate (%) In vivo inactivation ([2]; treatment dose 100 μg/mL) [%],Relative inhibition rate (%) In vivo inactivation ([2]; treatment dose 500 μg/mL) [%],Relative inhibition rate (%) In vivo therapy ([3]; treatment dose 100 μg/mL) [%],Relative inhibition rate (%) In vivo therapy ([3]; treatment dose 500 μg/mL) [%],Relative inhibition rate (%) In vivo protection ([4]; treatment dose 100 μg/mL) [%],Relative inhibition rate (%) In vivo protection ([4]; treatment dose 500 μg/mL) [%],Bactericidal activity (%) Cucumber fusarium wilt (cucumber fusarium wilt) [%],Bactericidal activity (%) Cercospora arachidicola (Cercospora arachidicola) [%],Bactericidal activity (%) Macrophoma kawatsukai (Macrophoma kawatsukai) [%],Bactericidal activity (%) Alternaria solani (Alternaria solani) [%],Bactericidal activity (%) Fusarium graminearumt (Fusarium graminearumt) [%],Bactericidal activity (%) potato late blight (potato late blight) [%],Bactericidal activity (%) Sclerotinia scleotiorum (Sclerotinia scleotiorum) [%],Bactericidal activity (%) Botrytis cinerea (Botrytis cinerea) [%],Bactericidal activity (%) Rhizoctonia solani (Rhizoctonia solani) [%],Bactericidal activity (%) Phytophthora capsici (Phytophthora capsici) [%],Bactericidal activity (%) Fusarium fujikuroi (Fusarium fujikuroi) [%],Bactericidal activity (%) Rhizoctonia cereali (Rhizoctonia cereali) [%],further results
"COc1ccccc1C=NNC(=O)[C@@H]1Cc2c([nH]c3ccccc23)[C@H](C)N1 [Ic-10, (1S, 3S)—N′-(2-methoxybenzylidene)-1-methyl-2,3,4,9-tetrahydropyridino [3,4-b] indol-3-formylhydrazine]",0,38.5,0,43.2,10.9,36.4,0,34.8,26.9,23.5,88.9,45.0,72.4,44.0,64.7,77.3,32.9,63.2,21.4,78.4,"Bactericidal activity (%) Bipolaria maydis (Bipolaria maydis): 56.0%; Bactericidal activity (%) Colletotrichum orbiculare [5]: 40.7%; Armyworm Mortality (%) (armyworms): 25%; Cotton bollworm Mortality (%) (cotton bollworms; concentration 600 mg/kg): 30%; Mosquito larvae Mortality (%) (mosquito larvae; concentration 10 mg/kg, 24 h): 50%; Corn borer Mortality (%) (corn borers; concentration 600 mg/kg): 30%"
C[C@@H]1N[C@H](C(=O)NN=Cc2ccc3c(c2)OCCO3)Cc2c1[nH]c1ccccc21 [Ic-13],19.8,46.5,15.2,43.6,18.6,48.1,10.3,46,22.7,45.5,66.7,52.4,30.8,30.4,21.2,66.7,44.4,84.8,47.1,89.2,"Bactericidal activity (%) Bipolaria maydis (Bipolaria maydis): 52.0%; Bactericidal activity (%) Colletotrichum orbiculare [5]: 72.0%; Armyworm Mortality (%) (armyworms): 30%; Cotton bollworm Mortality (%) (cotton bollworms; concentration 600 mg/kg): 15%; Mosquito larvae Mortality (%) (mosquito larvae; concentration 10 mg/kg, 24 h): 60%; Corn borer Mortality (%) (corn borers; concentration 600 mg/kg): 35%"
"C[C@@H]1N[C@H](C(=O)NN=Cc2ccc3cc(O)ccc3c2)Cc2c1[nH]c1ccccc21 [Ic-14, (1S, 3S)—N′-(6-hydroxynaphthalene-2-methylene)-1-methyl-2,3,4,9-tetrahydropyridino [3,4-b] indol-3-formylhydrazine]",0,40.9,16.9,45.6,8.2,43.9,0,47.8,19.2,47.1,77.8,30.0,10.3,44.0,88.2,72.7,28.9,84.2,28.6,86.3,"Bactericidal activity (%) Bipolaria maydis (Bipolaria maydis): 56.0%; Bactericidal activity (%) Colletotrichum orbiculare [5]: 48.1%; Armyworm Mortality (%) (armyworms): 40%; Cotton bollworm Mortality (%) (cotton bollworms; concentration 600 mg/kg): 35%; Mosquito larvae Mortality (%) (mosquito larvae; concentration 10 mg/kg, 24 h): 75%; Corn borer Mortality (%) (corn borers; concentration 600 mg/kg): 45%"
"C[C@@H]1N[C@H](C(=O)NN=Cc2ccncc2)Cc2c1[nH]c1ccccc21 [Ic-15, (1S, 3S)—N′-(pyridine-4-methylene)-1-methyl-2,3,4,9-tetrahydropyridino [3,4-b] indol-3-formylhydrazine]",0,36.6,8.8,43.4,12.9,39.6,0,37.5,23.1,35.3,52.8,15.0,27.6,24.0,64.7,36.4,23.7,28.9,21.4,66.7,Bactericidal activity (%) Bipolaria maydis (Bipolaria maydis): 28.0%; Bactericidal activity (%) Colletotrichum orbiculare [5]: 29.6%; Armyworm Mortality (%) (armyworms): 15%; Cotton bollworm Mortality (%) (cotton bollworms; in vivo): 15%; Mosquito larvae Mortality (%) (mosquito larvae; in vivo): 30%; Corn borer Mortality (%) (corn borers; in vivo): 20%
"C[C@@H]1N[C@H](C(=O)NN=Cc2cccnc2)Cc2c1[nH]c1ccccc21 [Ic-16, (1S, 3S)—N′-(pyridine-3-methylene)-1-methyl-2,3,4,9-tetrahydropyridino [3,4-b] indol-3-formylhydrazine]",0,33.3,11.2,41,5.7,36.9,0,33.6,38.5,41.2,83.3,15.0,62.1,52.0,35.3,54.5,39.5,26.3,50.0,80.4,Bactericidal activity (%) Bipolaria maydis (Bipolaria maydis): 32.0%; Bactericidal activity (%) Colletotrichum orbiculare [5]: 40.7%; Armyworm Mortality (%) (armyworms): 20%; Cotton bollworm Mortality (%) (cotton bollworms; in vivo): 10%; Mosquito larvae Mortality (%) (mosquito larvae; in vivo): 40%; Corn borer Mortality (%) (corn borers; in vivo): 30%
"C[C@@H]1N[C@H](C(=O)NN=Cc2ccccn2)Cc2c1[nH]c1ccccc21 [Ic-17, (1S, 3S)—N′-(pyridine-2-methylene)-1-methyl-2,3,4,9-tetrahydropyridino [3,4-b] indol-3-formylhydrazine]",0,32.7,9.2,38.9,0,36.8,0,31.4,23.1,23.5,75.0,20.0,20.7,12.0,5.9,36.4,21.1,18.4,21.4,41.2,Bactericidal activity (%) Bipolaria maydis (Bipolaria maydis): 16.0%; Bactericidal activity (%) Colletotrichum orbiculare [5]: 25.9%; Armyworm Mortality (%) (armyworms): 25%; Cotton bollworm Mortality (%) (cotton bollworms; in vivo): 20%; Mosquito larvae Mortality (%) (mosquito larvae; in vivo): 50%; Corn borer Mortality (%) (corn borers; in vivo): 20%
